In ChEMBL document CHEMBL4052722, “Virtual screening, synthesis and biological evaluation of DNA intercalating antiviral agents” (Bioorg Med Chem Lett, 2017):

Tests used:
[1] = test system: Vaccinia virus; assay: Antiviral activity against Vaccinia virus LIVP harboring GFP infected in African green monkey CV1 cells assessed as GFP expression at 10 uM preincubated for 4 hrs with cells followed by viral infection measured after 24 hrs by flow cytometric analysis relative to control; assay type: functional, Orthopoxvirus vaccinia
[2] = test system: Vaccinia virus; assay: (§1) Antiviral activity against Vaccinia virus LIVP harboring GFP infected in African green monkey CV1 cells assessed as virus titer at 1 uM preincubated with cells for 4 hrs followed by viral infection measured after 48 hrs by gentian violet staining-based microscopic analysis (reference value: 3.3 +/- 0.1 log10PFU/ml); assay type: functional, Orthopoxvirus vaccinia
[3] = test system: Vaccinia virus; assay: Antiviral activity against Vaccinia virus LIVP harboring GFP infected in African green monkey CV1 cells assessed as virus titer preincubated with cells for 4 hrs followed by viral infection measured after 48 hrs by gentian violet staining-based microscopic analysis; assay type: functional; settings: Orthopoxvirus vaccinia, CV-1
[4] = test system: Vaccinia virus; assay: Antiviral activity against Vaccinia virus LIVP harboring GFP infected in African green monkey CV1 cells assessed as inhibition of GFP expression at 30 to 50 uM preincubated for 4 hrs with cells followed by viral infection measured after 24 hrs by flow cytometric analysis relative to control; assay type: functional, Orthopoxvirus vaccinia
[5] = test system: Vaccinia virus; assay: as §1, with “at 30” for “at 1”; assay type: functional, Orthopoxvirus vaccinia
[6] = test system: Vaccinia virus; assay: as §1, with “at 10” for “at 1”; assay type: functional, Orthopoxvirus vaccinia
[7] = test system: Vaccinia virus; assay: as §1, with “at 5” for “at 1”; assay type: functional, Orthopoxvirus vaccinia
[8] = test system: Vaccinia virus; assay: as §1, with “at 50” for “at 1”; assay type: functional, Orthopoxvirus vaccinia

CN1CCN(CCn2c3ccccc3c3nc4ccccc4nc32)CC1
Activity [1]: 91%

CN(C)CCn1c2ccccc2c2nc3ccccc3nc21
Activity [1]: 67%

CCCCN(C)CCn1c2ccccc2c2nc3ccccc3nc21
Activity [1]: 77%

O=C(CN1CCCCCC1)NN1C(=O)c2cccc3cccc(c23)C1=O
Activity [1]: 111%

CCN(CC)CCNC(=O)Cn1c2ccccc2c2nc3ccccc3nc21
Activity [1]: 67%

O=C(Cn1c2ccccc2c2nc3ccccc3nc21)NCCN1CCOCC1
Activity [1]: 125%

CN(C)CCCNC(=O)CCCn1c2ccccc2c2nc3ccccc3nc21
Activity [1]: 111%

Cc1ccc2c(c1)c1nc3ccccc3nc1n2CCN1CCN(C)CC1
Activity [1]: 111%

COC(=O)CN(C)CCCN1C(=O)c2cccc3cccc(c23)C1=O
Activity [1]: 83%

CCCCN(CCO)CCN1C(=O)c2cccc3cccc(c23)C1=O
Activity [1]: 83%

CN1CCN(CCN2C(=O)c3cccc4cccc(c34)C2=O)CC1
Activity [1]: 77%

O=C(CCCn1c2ccccc2c2nc3ccccc3nc21)NCCN1CCCCC1
Activity [1]: 100%

CN1CCN(CC(=O)NN2C(=O)c3cccc4cccc(c34)C2=O)CC1
Activity [1]: 48%

CN(C)CCCNCCn1c2ccccc2c2nc3ccccc3nc21
Activity [2]: 3.5 log10PFU | Activity [1]: 45% | IC50 [3]: 22 µM | fold change (FC) [4]: 8 - 10 | Activity [5]: 2.7 log10PFU | Activity [6]: 3.3 log10PFU

CCN(CC)CCn1c2ccc(OC)cc2c2nc3ccccc3nc21
Activity [1]: 91%

c1ccc2nc3c(nc2c1)c1ccccc1n3CCNCCCN1CCOCC1
Activity [2]: 3.6 log10PFU | Activity [1]: 48% | IC50 [3]: 19 µM | fold change (FC) [4]: 8 - 10 | Activity [5]: 2.6 log10PFU | Activity [6]: 3.3 log10PFU

CN(C)CCCOC(=O)Cn1c2ccccc2c2nc3ccccc3nc21
Activity [1]: 83%

O=C(CN1CCCC1)NN1C(=O)c2cccc3cccc(c23)C1=O
Activity [1]: 111%

CC(O)N(C)CCn1c2ccccc2c2nc3ccccc3nc21 (centres undefined)
Activity [1]: 91%

O=C(Cn1c2ccccc2c2nc3ccccc3nc21)OCCN1CCCCC1
Activity [1]: 71%

CN(C)CCOC(=O)CCCn1c2ccccc2c2nc3ccccc3nc21
Activity [1]: 125%

CCN(CC)CCCNC(=O)Cn1c2ccccc2c2nc3ccccc3nc21
Activity [1]: 83%

CCN(CC)CCNCCn1c2ccccc2c2nc3ccccc3nc21
Activity [1]: 91%

CCN(CC)CCCNCCn1c2ccccc2c2nc3ccccc3nc21
Activity [2]: 2.8 log10PFU | Activity [1]: 28% | Activity [7]: 2.8 log10PFU | IC50 [3]: < 1 µM | Activity [6]: 2.6 log10PFU

O=C(CCCn1c2ccccc2c2nc3ccccc3nc21)NCCCN1CCOCC1
Activity [1]: 111%

CN(CCO)CCN1C(=O)c2cccc3cccc(c23)C1=O
Activity [1]: 83%

CCN(CCO)CCN1C(=O)c2cccc3cccc(c23)C1=O
Activity [1]: 71%

CN(C)CCNC(=O)Cn1c2ccccc2c2nc3ccccc3nc21
Activity [1]: 59%

CN(C)CCNC(=O)CCCn1c2ccccc2c2nc3ccccc3nc21
Activity [1]: 100%

CC1CCN(CC(=O)NN2C(=O)c3cccc4cccc(c34)C2=O)CC1
Activity [1]: 125%

COc1ccc2c(c1)c1nc3ccccc3nc1n2CCN1CCCCC1
Activity [8]: 2.4 log10PFU | Activity [2]: 3.1 log10PFU | Activity [1]: 23% | IC50 [3]: 5 µM | fold change (FC) [4]: 8 - 10 | Activity [6]: 2.8 log10PFU

CN(C)CCCNC(=O)Cn1c2ccccc2c2nc3ccccc3nc21
Activity [8]: 2.5 log10PFU | Activity [2]: 3.4 log10PFU | Activity [1]: 42% | IC50 [3]: 10 µM | fold change (FC) [4]: 8 - 10 | Activity [6]: 2.8 log10PFU

CN(C)CCNCCn1c2ccccc2c2nc3ccccc3nc21
Activity [1]: 77%

CCN(CC)CCNC(=O)CCCn1c2ccccc2c2nc3ccccc3nc21
Activity [1]: 91%

CCN(CC)CCCC(C)N1C(=O)c2cccc3cccc(c23)C1=O (centres undefined)
Activity [1]: 111%

O=C(CCCn1c2ccccc2c2nc3ccccc3nc21)OCCN1CCOCC1
Activity [1]: 111%

O=C(Cn1c2ccccc2c2nc3ccccc3nc21)NCCCN1CCOCC1
Activity [1]: 83%

c1ccc2nc3c(nc2c1)c1ccccc1n3CCNCCN1CCCCC1
Activity [1]: 71%

O=C(CCCn1c2ccccc2c2nc3ccccc3nc21)NCCN1CCOCC1
Activity [1]: 111%

COC(=O)CN1CCN(CCN2C(=O)c3cccc4cccc(c34)C2=O)CC1
Activity [1]: 77%
